US8901118B2, “Compounds and methods for kinase modulation, and indications therefor” (Plexxikon Inc., priority 2010, dated 2014)

How the values were obtained:
BCR-FMS BaF3 cells = molecular target: T1, BCR-FMS BaF3 cells (Homo sapiens, UniProt P07333); assay: BaF3 BCR-FMS cell proliferation assay (ATPlite); format: cell-based; settings: read-out: Inhibition of Cell Proliferation IC50, BCR/BaF3 Fms
T1 construct: fused on or other part: P11274 (Breakpoint cluster region protein)
T1 sequence (P07333 582-910): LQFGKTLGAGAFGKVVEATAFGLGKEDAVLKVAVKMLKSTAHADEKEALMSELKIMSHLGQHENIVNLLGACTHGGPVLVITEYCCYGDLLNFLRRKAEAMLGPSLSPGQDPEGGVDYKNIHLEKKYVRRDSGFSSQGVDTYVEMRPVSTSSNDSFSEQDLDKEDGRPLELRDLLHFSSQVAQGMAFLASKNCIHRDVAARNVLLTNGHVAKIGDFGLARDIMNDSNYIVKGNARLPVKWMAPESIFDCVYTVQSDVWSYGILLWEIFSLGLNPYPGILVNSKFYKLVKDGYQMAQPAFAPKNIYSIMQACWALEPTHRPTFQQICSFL
Outline: (§1)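 ATP-based luminescence (ATPlite), read after 10 min at room temperature, served as a proxy for cell number, and IC50 was fitted against compound concentration. Before that, cells were treated for 3 days with an 8-point 1:3 dilution series starting at 10 μM. BaF3 cells were plated at 10,000/well without IL-3, and MV-4-11 cells at 25,000/well.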

BCR-KIT BaF3 cells = molecular target: T2, BCR-KIT BaF3 cells (Homo sapiens, UniProt P10721); assay: BaF3 BCR-KIT cell proliferation assay (ATPlite); format: cell-based; settings: read-out: Inhibition of Cell Proliferation IC50, BCR/BaF3 Kit
T2 construct: fused on or other part: P11274 (Breakpoint cluster region protein)
T2 sequence (P10721 589-937): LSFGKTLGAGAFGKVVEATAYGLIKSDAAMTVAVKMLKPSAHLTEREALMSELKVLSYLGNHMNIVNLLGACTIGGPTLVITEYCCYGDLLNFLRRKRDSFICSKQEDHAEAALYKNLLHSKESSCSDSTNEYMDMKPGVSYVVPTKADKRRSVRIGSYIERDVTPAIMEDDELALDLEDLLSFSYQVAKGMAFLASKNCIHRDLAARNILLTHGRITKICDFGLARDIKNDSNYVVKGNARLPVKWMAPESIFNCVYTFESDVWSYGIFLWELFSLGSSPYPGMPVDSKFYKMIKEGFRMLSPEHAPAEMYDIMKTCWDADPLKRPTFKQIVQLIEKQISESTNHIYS
Outline: as §1

BCR-NTRK3 BaF3 cells = molecular target: T3, BCR-NTRK3 BaF3 cells (Homo sapiens, UniProt Q16288); assay: BaF3 BCR-NTRK3 cell proliferation assay (ATPlite); format: cell-based; settings: read-out: Inhibition of Cell Proliferation IC50, BCR/BaF3 TrkC
T3 construct: fused on or other part: P11274 (Breakpoint cluster region protein)
T3 sequence (Q16288 whole entry, the tested form may be a part): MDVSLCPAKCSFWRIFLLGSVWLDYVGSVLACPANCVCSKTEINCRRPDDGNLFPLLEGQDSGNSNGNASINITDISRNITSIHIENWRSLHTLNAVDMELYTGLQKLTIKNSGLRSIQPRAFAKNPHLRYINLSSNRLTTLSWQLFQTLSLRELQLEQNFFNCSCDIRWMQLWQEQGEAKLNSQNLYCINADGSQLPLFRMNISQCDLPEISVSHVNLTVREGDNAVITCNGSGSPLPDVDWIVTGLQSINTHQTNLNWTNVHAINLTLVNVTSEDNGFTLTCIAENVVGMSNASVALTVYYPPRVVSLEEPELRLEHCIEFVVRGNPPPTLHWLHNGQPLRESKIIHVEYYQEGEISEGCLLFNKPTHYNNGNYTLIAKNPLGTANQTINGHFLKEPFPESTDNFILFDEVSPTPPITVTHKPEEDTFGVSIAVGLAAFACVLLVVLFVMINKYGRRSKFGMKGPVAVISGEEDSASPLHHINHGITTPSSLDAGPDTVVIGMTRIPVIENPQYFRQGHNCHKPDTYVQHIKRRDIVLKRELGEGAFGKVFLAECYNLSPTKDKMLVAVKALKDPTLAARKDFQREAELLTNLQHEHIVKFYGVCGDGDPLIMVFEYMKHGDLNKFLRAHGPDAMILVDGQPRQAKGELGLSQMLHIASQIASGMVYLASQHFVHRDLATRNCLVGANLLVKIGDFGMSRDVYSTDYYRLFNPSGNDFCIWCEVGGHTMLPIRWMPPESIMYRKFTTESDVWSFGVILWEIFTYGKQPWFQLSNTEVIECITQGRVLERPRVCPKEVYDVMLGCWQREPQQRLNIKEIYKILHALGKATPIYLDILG
Outline: as §1

CYP2C19 = CYP2C19 (Homo sapiens, UniProt P33261); assay: CYP2C19 inhibition (fluorescent substrate CEC); format: in vitro ADME; settings: read-out: Cyp IC50 2C19
Sequence of CYP2C19 (P33261 whole entry): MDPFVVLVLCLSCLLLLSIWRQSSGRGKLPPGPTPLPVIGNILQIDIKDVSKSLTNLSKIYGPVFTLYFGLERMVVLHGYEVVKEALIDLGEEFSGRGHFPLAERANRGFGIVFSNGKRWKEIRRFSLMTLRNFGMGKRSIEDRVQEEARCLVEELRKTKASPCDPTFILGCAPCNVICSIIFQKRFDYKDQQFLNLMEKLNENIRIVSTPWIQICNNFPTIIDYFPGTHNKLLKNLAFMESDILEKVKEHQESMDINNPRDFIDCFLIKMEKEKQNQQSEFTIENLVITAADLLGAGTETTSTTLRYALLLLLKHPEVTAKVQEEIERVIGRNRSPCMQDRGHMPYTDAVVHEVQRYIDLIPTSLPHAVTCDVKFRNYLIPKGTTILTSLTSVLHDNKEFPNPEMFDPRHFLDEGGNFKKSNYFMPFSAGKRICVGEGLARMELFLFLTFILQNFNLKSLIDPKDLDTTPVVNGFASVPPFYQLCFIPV
Outline: (§2)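 Test compounds, 10-point 1:1 serial dilutions in NADPH-regenerating cofactor mix, were preincubated 10 min at 37° C before recombinant enzyme and fluorogenic substrate reactions at 37° C (CYP1A2 15 min; CYP2C9 45 min; CYP2C19, 2D6 30 min). Product fluorescence was read at 409 ex with 460 em (1A2, 2C19) or 530 em (2C9, 2D6), and IC50 fitted from signal versus concentration.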

CYP2C9 = CYP2C9 (Homo sapiens, UniProt P11712); assay: CYP2C9 inhibition (fluorescent substrate MFC); format: in vitro ADME; settings: read-out: Cyp IC50 2C9
Sequence of CYP2C9 (P11712 whole entry): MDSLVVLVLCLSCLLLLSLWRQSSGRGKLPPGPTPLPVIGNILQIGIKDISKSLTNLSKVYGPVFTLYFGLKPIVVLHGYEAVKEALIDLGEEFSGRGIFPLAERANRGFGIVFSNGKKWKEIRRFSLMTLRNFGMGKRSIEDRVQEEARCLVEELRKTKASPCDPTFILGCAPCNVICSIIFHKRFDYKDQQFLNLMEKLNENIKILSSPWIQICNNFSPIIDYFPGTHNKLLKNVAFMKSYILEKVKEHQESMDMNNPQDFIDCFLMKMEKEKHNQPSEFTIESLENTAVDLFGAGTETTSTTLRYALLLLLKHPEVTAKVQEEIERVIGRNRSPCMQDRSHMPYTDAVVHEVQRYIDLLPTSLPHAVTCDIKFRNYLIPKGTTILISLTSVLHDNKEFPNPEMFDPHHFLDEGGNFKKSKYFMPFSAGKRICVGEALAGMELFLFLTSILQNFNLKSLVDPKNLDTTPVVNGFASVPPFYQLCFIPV
Outline: as §2

| SMILES | IC50 (BCR-FMS BaF3 cells) [µM] | IC50 (BCR-KIT BaF3 cells) [µM] | IC50 (BCR-NTRK3 BaF3 cells) [µM] | IC50 (CYP2C19) [µM] | IC50 (CYP2C9) [µM] |
| --- | --- | --- | --- | --- | --- |
| COCCOc1ncnc2[nH]cc(Cc3ccc(Nc4ccc(OC)nc4)nc3F)c12 [Compound P-4019, {6-Fluoro-5-[4-(2-methoxy-ethoxy)-7H-pyrrolo[2,3-d]pyrimidin-5-ylmethyl]-pyridin-2-yl}-(6-methoxy-pyridin-3-yl)-amine] | < 0.01 | < 1 | < 0.1 | 5 to 10 | > 10 |
| COc1ccc(Nc2ccc(C(=O)c3c[nH]c4ncnc(C5CC5)c34)c(F)n2)cn1 [Compound P-4022, (4-cyclopropyl-7H-pyrrolo[2,3-d]pyrimidin-5-yl)-[2-fluoro-6-(6-methoxy-pyridin-3-ylamino)-pyridin-3-yl]-methanone] | < 0.1 | < 1 | < 0.01 | 5 to 10 | > 10 |
| COc1ccc(Nc2ccc(Cc3c[nH]c4ncnc(C5CC5)c34)c(F)n2)cn1 [Compound P-4023, [5-(4-cyclopropyl-7H-pyrrolo[2,3-d]pyrimidin-5-ylmethyl)-6-fluoro-pyridin-2-yl]-(6-methoxy-pyridin-3-yl)-amine] | < 0.01 | < 1 | < 0.01 | < 5 | > 10 |
| CCOc1ccc(Nc2ccc(C(=O)c3c[nH]c4ncnc(OC)c34)c(F)n2)cn1 [Compound P-4024, [6-(6-Ethoxy-pyridin-3-ylamino)-2-fluoro-pyridin-3-yl]-(4-methoxy-7H-pyrrolo[2,3-d]pyrimidin-5-yl)-methanone] | < 0.1 | < 1 | < 0.1 | > 10 | > 10 |
| CCOc1ncnc2[nH]cc(C(=O)c3ccc(Nc4ccc(OC)nc4)nc3F)c12 [Compound P-4025, (4-Ethoxy-7H-pyrrolo[2,3-d]pyrimidin-5-yl)-[2-fluoro-6-(6-methoxy-pyridin-3-ylamino)-pyridin-3-yl]-methanone] | < 0.1 | > 1 | < 0.1 | 5 to 10 | > 10 |
| CCc1ccc(Nc2ccc(Cc3c[nH]c4ncnc(C5CC5)c34)c(F)n2)cn1 [Compound P-4028, [5-(4-Cyclopropyl-7H-pyrrolo[2,3-d]pyrimidin-5-ylmethyl)-6-fluoro-pyridin-2-yl]-(6-ethyl-pyridin-3-yl)-amine] | < 0.01 | < 1 | < 0.01 | 5 to 10 | 5 to 10 |
| CCc1ccc(Nc2ccc(C(=O)c3c[nH]c4ncnc(C5CC5)c34)c(F)n2)cn1 [Compound P-4029, (4-Cyclopropyl-7H-pyrrolo[2,3-d]pyrimidin-5-yl)-[6-(6-ethyl-pyridin-3-ylamino)-2-fluoro-pyridin-3-yl]-methanone] | < 0.1 | < 0.1 | < 0.01 | > 10 | > 10 |
| Cc1ccc(Nc2ccc(Cc3c[nH]c4ncnc(C5CC5)c34)c(F)n2)cn1 [Compound P-4030, [5-(4-Cyclopropyl-7H-pyrrolo[2,3-d]pyrimidin-5-ylmethyl)-6-fluoro-pyridin-2-yl]-(6-methyl-pyridin-3-yl)-amine] | < 0.01 | < 1 | < 0.1 | 5 to 10 | > 10 |
| Cc1ccc(Nc2ccc(C(=O)c3c[nH]c4ncnc(C5CC5)c34)c(F)n2)cn1 [Compound P-4031, (4-Cyclopropyl-7H-pyrrolo[2,3-d]pyrimidin-5-yl)-[2-fluoro-6-(6-methyl-pyridin-3-ylamino)-pyridin-3-yl]-methanone] | < 0.1 | < 1 | < 0.01 | > 10 | > 10 |
| CCn1cc(Nc2ccc(Cc3c[nH]c4ncnc(C5CC5)c34)c(F)n2)cn1 [Compound P-4036, [5-(4-Cyclopropyl-7H-pyrrolo[2,3-d]pyrimidin-5-ylmethyl)-6-fluoro-pyridin-2-yl]-(1-ethyl-1H-pyrazol-4-yl)-amine] | < 0.1 | < 1 | < 0.1 | 5 to 10 | 5 to 10 |
| Fc1nc(NC2CCC(F)(F)CC2)ccc1Cc1c[nH]c2ncnc(NCC(F)(F)F)c12 [Compound P-4128, 5-[[6-[(4,4-difluorocyclohexyl)amino]-2-fluoro-3-pyridyl]methyl]-N-(2,2,2-trifluoroethyl)-7H-pyrrolo[2,3-d]pyrimidin-4-amine] | < 0.1 | < 1 | < 0.1 | > 10 | > 10 |
| Fc1nc(NC2CCC(F)(F)CC2)ccc1Cc1c[nH]c2ncnc(NC3CC3)c12 [Compound P-4129, N-cyclopropyl-5-[[6-[(4,4-difluorocyclohexyl)amino]-2-fluoro-3-pyridyl]methyl]-7H-pyrrolo[2,3-d]pyrimidin-4-amine] | < 0.1 | < 1 | < 0.1 | > 10 | 5 to 10 |
| Fc1nc(Nc2ccc(C3CC3)nc2)ccc1Cc1c[nH]c2ncnc(NCC(F)(F)F)c12 [Compound P-4130, 5-[[6-[(6-cyclopropyl-3-pyridyl)amino]-2-fluoro-3-pyridyl]methyl]-N-(2,2,2-trifluoroethyl)-7H-pyrrolo[2,3-d]pyrimidin-4-amine] | < 0.01 | > 1 | < 0.01 | < 5 | > 10 |
